Results from ChEMBL document CHEMBL5154925, “Design and Optimization of Thienopyrimidine Derivatives as Potent and Selective PI3Kδ Inhibitors for the Treatment of B-Cell Malignancies” (J Med Chem, 2022).

Test system: SU-DHL-6
Assay: Antiproliferative activity against human SU-DHL-6 cells assessed as cell growth inhibition incubated for 96 hrs by cell titer glo assay
Format: functional, cell-based
Conditions: SU-DHL-6, 96 h

IC50: 1.43 µM
SMILES: CCC(=O)N1CC[C@H](Nc2ncnc3sc(-c4cnc(OC)c(OC)c4)cc23)C1
